This note sets out measurements from patent US6600063B1, “Derivatives of phenyl 4-aminosalicylate and method of making the same” (priority 2000, dated 2003).

Values after ≈ are worked out from the molar mass of the structure shown.

Assay in all cases: microbe, parasite or virus in culture
What all share (assay type): cell-based

Assay [1] concerns M. tuberculosis strain resistant to isoniazid (ATCC 35822). To be noted: Mycobacterium tuberculosis, ATCC35822, read-out: MIC INH-R (ug/ml).
Assay [2] relates to M. tuberculosis strain resistant to rifampin (ATCC 35838). The settings on record: Mycobacterium tuberculosis, ATCC35838, read-out: MIC RMP-R (ug/ml).
In assay [3] the test system is M. tuberculosis EMB-R strain. To be noted: Mycobacterium tuberculosis, read-out: MIC EMB-R (ug/ml).
Assay [4] concerns M. tuberculosis ETA-R strain. To be noted: Mycobacterium tuberculosis, read-out: MIC ETA-R (ug/ml).

Turning to `O=C(Oc1ccccc1)c1ccc(NC(=S)Nc2ccccc2)cc1O` [SAMPLE ID 131326], the MIC in assay [1] is at most 0.1 µg/mL; in assay [2], 0.2 µg/mL (≈ 0.549 µM); in assay [3], 0.2 µg/mL (≈ 0.549 µM); in assay [4], 0.2 µg/mL (≈ 0.549 µM).
